Among the data in ChEMBL document CHEMBL3045307, “Synthesis, characterization, and urease inhibition of 5-substituted-8-methyl-2H-pyrido[1,2-a]pyrimidine-2,4(3H)-diones” (Med Chem Res, 2012) are inhibition values, retold here.

In assay [1] the target is Urease (Canavalia ensiformis) (UniProt P07374). As to the kind of experiment: Inhibition of Canavalia ensiformis (jack bean) urease assessed as ammonia production using urea as substrate at 0.01 uM after 15 min by indophenol method.
For assay [2] the target is unchanged. Kind of assay: Inhibition of Canavalia ensiformis (jack bean) urease assessed as ammonia production using urea as substrate at 1 uM after 15 min by indophenol method.
Assay [3] has the same target. As to the kind of experiment: Inhibition of Canavalia ensiformis (jack bean) urease assessed as ammonia production using urea as substrate at 10 uM after 15 min by indophenol method.
Assay [4] has the same target. Kind of assay: Inhibition of Canavalia ensiformis (jack bean) urease assessed as ammonia production using urea as substrate at 100 uM after 15 min by indophenol method.
The target is the same in assay [5]. As to the kind of experiment: Inhibition of Canavalia ensiformis (jack bean) urease assessed as ammonia production using urea as substrate at 0.1 uM after 15 min by indophenol method.

Sequence of Urease (Canavalia ensiformis) (P07374 whole entry, looked up): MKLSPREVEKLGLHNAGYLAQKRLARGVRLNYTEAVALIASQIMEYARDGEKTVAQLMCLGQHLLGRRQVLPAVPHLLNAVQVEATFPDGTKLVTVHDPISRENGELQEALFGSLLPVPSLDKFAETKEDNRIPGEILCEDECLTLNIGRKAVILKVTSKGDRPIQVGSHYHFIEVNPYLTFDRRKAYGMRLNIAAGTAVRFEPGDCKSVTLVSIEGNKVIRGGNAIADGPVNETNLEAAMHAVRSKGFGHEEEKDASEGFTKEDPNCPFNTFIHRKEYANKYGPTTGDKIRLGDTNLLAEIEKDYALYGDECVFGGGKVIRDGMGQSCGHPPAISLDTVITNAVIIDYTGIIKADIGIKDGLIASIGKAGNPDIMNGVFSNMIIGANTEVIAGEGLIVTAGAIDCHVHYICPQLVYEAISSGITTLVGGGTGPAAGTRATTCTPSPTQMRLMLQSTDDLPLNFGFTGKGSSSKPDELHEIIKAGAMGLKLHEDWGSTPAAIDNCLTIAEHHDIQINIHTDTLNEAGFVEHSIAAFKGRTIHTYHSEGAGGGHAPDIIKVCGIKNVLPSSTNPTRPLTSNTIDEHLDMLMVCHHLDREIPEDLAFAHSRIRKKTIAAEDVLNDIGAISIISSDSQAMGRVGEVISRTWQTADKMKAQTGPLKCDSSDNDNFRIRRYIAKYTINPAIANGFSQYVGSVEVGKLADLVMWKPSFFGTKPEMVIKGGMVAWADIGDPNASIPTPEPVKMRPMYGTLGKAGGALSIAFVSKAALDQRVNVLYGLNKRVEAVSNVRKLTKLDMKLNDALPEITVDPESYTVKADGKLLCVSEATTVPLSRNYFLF

In the case of `CC1=CC2=NC(=O)/C(=C\NNC(=O)c3ccc(Cl)cc3)C(=O)N2C=C1`, the inhibition in assay [1] is -4%; in assay [2], 6%; in assay [3], 14%; in assay [4], 43%; in assay [5] it was -2%.

As for `CC1=CC2=NC(=O)/C(=C\Nc3c(C)cc(C)cc3C)C(=O)N2C=C1`, the inhibition in assay [2] is -1%; in assay [3], -8%; in assay [4] it was 0.2%; in assay [5], -6%.

For the molecule `CC1=CC2=NC(=O)/C(=C\Nc3cc(C)ccn3)C(=O)N2C=C1`, the inhibition was 1% in assay [1]; 16% in assay [2]; 20% in assay [3]; 33% in assay [4]; 6% in assay [5].

Regarding `CC1=CC2=NC(=O)/C(=C\NNC(=O)c3ccc(Br)cc3)C(=O)N2C=C1`, the inhibition in assay [1] is -8%; in assay [2], 3%; in assay [3], 23%; in assay [4], 57%; in assay [5], -2%.

For the molecule `CC1=CC2=NC(=O)/C(=C\Nc3ccc([N+](=O)[O-])cn3)C(=O)N2C=C1`, the inhibition in assay [1] was found to be 3%; in assay [2] it was 23%; in assay [3], 36%; in assay [4], 48%; in assay [5] it was 6%.

As for `CC1=CC2=NC(=O)/C(=C\Nc3ccccc3F)C(=O)N2C=C1`, the inhibition in assay [1] amounted to 3%; in assay [2], 26%; in assay [3], 44%; in assay [4], 57%; in assay [5] it was 10%.

For `CC(=O)c1cccc(N/C=C2\C(=O)N=C3C=C(C)C=CN3C2=O)c1`, the inhibition in assay [1] was -1%; in assay [2], 8%; in assay [3] it was 28%; in assay [4], 45%; in assay [5] it was 3%.

In the case of `CC1=CC2=NC(=O)/C(=C\NNC(=O)c3ccc([N+](=O)[O-])cc3)C(=O)N2C=C1`, the inhibition is 6% in assay [1]; 54% in assay [2]; 60% in assay [3]; 87% in assay [4]; 21% in assay [5].

`CC1=CC2=NC(=O)/C(=C\NNC(=O)c3ccccc3)C(=O)N2C=C1`: the inhibition in assay [1] was -1%; in assay [2] it was 6%; in assay [3], 13%; in assay [4] it was 26%; in assay [5], 1%.

With `CC1=CC2=NC(=O)/C(=C\Nc3ccc(F)cc3)C(=O)N2C=C1`, the inhibition was determined as 1% in assay [1]; 14% in assay [2]; 21% in assay [3]; 35% in assay [4]; 6% in assay [5].

As to `CC1=CC2=NC(=O)/C(=C\NNC(=O)c3ccc(O)cc3)C(=O)N2C=C1`, the inhibition in assay [1] was -5%; in assay [2], 7%; in assay [3], 22%; in assay [4], 39%; in assay [5] it was -1%.

As to `CC(=O)c1ccc(N/C=C2\C(=O)N=C3C=C(C)C=CN3C2=O)cc1`, the inhibition is -3% in assay [1]; 1% in assay [2]; 5% in assay [3]; 18% in assay [4]; -2% in assay [5].

For the molecule `CC(=O)c1ccccc1N/C=C1\C(=O)N=C2C=C(C)C=CN2C1=O`, the inhibition was found to be 11% in assay [1]; 32% in assay [2]; 54% in assay [3]; 69% in assay [4]; 19% in assay [5].

In the case of `CC1=CC2=NC(=O)/C(=C\Nc3cccc(F)c3)C(=O)N2C=C1`, the inhibition was determined as 3% in assay [3] and 28% in assay [4].

Consider `CC1=CC2=NC(=O)/C(=C\Nc3ccccc3S)C(=O)N2C=C1`, for which the inhibition in assay [1] amounted to 22%; in assay [2], 60%; in assay [3], 73%; in assay [4], 97%; in assay [5] it was 28%.

On to `CC1=CC2=NC(=O)CC(=O)N2C=C1`, for which the inhibition in assay [1] was determined as 1%; in assay [2], 12%; in assay [3] it was 26%; in assay [4], 39%; in assay [5], 6%.

Regarding `CC1=CC2=NC(=O)/C(=C\Nc3ccc(C)cn3)C(=O)N2C=C1`, the inhibition is 3% in assay [1]; 24% in assay [2]; 48% in assay [3]; 57% in assay [4]; 11% in assay [5].

`NC(N)=S`: the inhibition in assay [1] turned out to be 8%; in assay [2] it was 15%; in assay [3] it was 21%; in assay [4] it was 94%; in assay [5] it was 8%.
